Laboratory results reported in US11918582B2 (RAPT Therapeutics, Inc., priority 2021, dated 2024).
Counter-ions that a name gives are not always drawn.

Target: T1, human HPK1 (MAP4K1) (Homo sapiens, UniProt Q92918)
T1 construct: Recombinant human HPK1 kinase domain was obtained from ThermoFisher (Cat. #PV6357) and SignalChem (Cat. #M23-11G); purchased ThermoFisher; SignalChem PV6357; M23-11G
T1 sequence (Q92918 17-274 limits assumed): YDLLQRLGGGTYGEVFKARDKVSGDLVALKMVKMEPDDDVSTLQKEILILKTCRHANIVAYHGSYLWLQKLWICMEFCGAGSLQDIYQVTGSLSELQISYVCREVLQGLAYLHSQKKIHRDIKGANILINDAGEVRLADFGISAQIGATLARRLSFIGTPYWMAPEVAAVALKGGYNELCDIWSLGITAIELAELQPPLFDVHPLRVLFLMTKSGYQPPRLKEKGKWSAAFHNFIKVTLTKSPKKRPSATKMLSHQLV
Test: Biochemical assay for activity against HPK1 (ADP-Glo, MBP substrate)
Details: recombinant human HPK1 kinase domain, 1 nM enzyme, ADP-Glo luminescence
Description: These compounds are made by the synthetic methods described earlier herein. Example 227 Biochemical Assay for Testing Compounds for Activity against HPK1
The enzymatic activity of human HPK1 (MAP4K1) was monitored in a biochemical assay in the presence or absence of compounds, using a peptide substrate (myelin basic protein, MBP), with an ADP-Glo assay kit (Promega, Cat. #V9103). An increase in phosphorylation of the peptide by HPK1 was indicative of its kinase activity.
Recombinant human HPK1 kinase domain was obtained from ThermoFisher (Cat. #PV6357) and SignalChem (Cat. #M23-11G). A 1 nM HPK1 kinase enzyme solution was prepared from the HPK1 stock received from the commercial supplier using an assay buffer containing 50 mM HEPES (4-(2-hydroxyethyl)-1-piperazineethanesulfonic acid) pH 7.5 (Fisher Scientific, Cat. #H1035), 150 mM NaCl (Fisher Scientific, Cat. #50843067), 3 mM TCEP-HCl (Tris(2-carboxyethyl)phosphine hydrochloride; Fisher Scientific, Cat. #PIPG82080), 10 mM MgCl2 (Fisher Scientific, Cat. #AM9530G), 0.005% Tween-20 (Fisher Scientific, Cat. #BP337500) and 0.01% BSA (bovine serum albumin; ThermoFisher, Cat. #15260037), in ultra-pure water. The final concentration of the assay buffer was 770 nM. A 5 mM stock solution of the peptide substrate was prepared using […] MBP (Myelin Basic Protein, Active Motif, Cat. #31314), 10 mM ATP (adenosine 5′-triphosphate; Sigma-Aldrich, Cat. #GE27-2056-01) and of assay buffer.
Test compounds were dissolved in DMSO (dimethyl sulfoxide) at 10 mM and then serial dilutions were prepared using a ViaFlow assist multichannel dispenser (Integra ViaFlo). 20 nL of test compounds at various concentrations were dispensed into a 1536-well assay plate (Corning Cat. #7247) using an Echo Nanoliter dispenser (Labcyte ECHO 550). […] of a 1 nM solution of HPK1 kinase enzyme diluted in assay buffer was added to the compound-containing plate using a Mantis Microliter dispenser (Formulatrix Mantis), covered with a lid, and incubated for 15 minutes at room temperature. 50 nL of a 5 mM stock solution of the peptide substrate (MBP) were added using the Echo Nanoliter dispenser. The plate was covered with a lid, centrifugated at 500 rpm for 1 minute and incubated for 2 hours at room temperature. […] of ADP-Glo reagent A was added using the Mantis Microliter dispenser, centrifugated at 500 rpm for 30 seconds and incubated for 40 minutes at room temperature. […] of ADP-Glo reagent B was added using the Mantis Microliter dispenser, centrifugated at 500 rpm for 30 seconds and incubated for 30 minutes at room temperature. Peptide phosphorylation was measured by luminescence on an Envision plate reader (PerkinElmer).
The HPK1 biochemical IC50 activity levels of the compounds of Examples 1-225 were tested using this assay and are shown in Table 2.

| SMILES | IC50 |
| --- | --- |
| CCOC(=O)[C@@H]1CCC[C@H](n2ncc3cnc(Nc4cc5c(cc4OC)CCN(C)C5)nc32)C1 (relative stereo) [Example 21, ethyl cis-3-(6-((6-methoxy-2-methyl-1,2,3,4-tetrahydroisoquinolin-7-yl)amino)-1H-pyrazolo[3,4-d]pyrimidin-1-yl)cyclohexane-1-carboxylate] | < 100 nM |
| COc1cc2c(cc1Nc1ncc3cnn([C@@H]4CCC[C@H](CO)C4)c3n1)CN(C)CC2 (relative stereo) [Example 22, cis-3-(6-((6-methoxy-2-methyl-1,2,3,4-tetrahydroisoquinolin-7-yl)amino)-1H-pyrazolo[3,4-d]pyrimidin-1-ylcyclohexyl)methanol] | < 100 nM |
| COc1cc2c(cc1Nc1ncc3cnn([C@H]4CCC[C@@H](O)C4)c3n1)CN(C)CC2 (relative stereo) [Example 23, cis-3-(6-((6-methoxy-2-methyl-1,2,3,4-tetrahydroisoquinolin-7-yl)amino)-1H-pyrazolo[3,4-d]pyrimidin-1-yl)cyclohexan-1-ol] | < 100 nM |
| COc1cc2c(cc1Nc1ncc3cnn([C@@H]4CC[C@H](CO)C4)c3n1)CN(C)CC2 (relative stereo) [Example 24] | < 100 nM |
| COc1cc2c(cc1Nc1ncc3c(C)nn([C@H]4CC[C@@H](O)C4)c3n1)CN(C)CC2 (relative stereo) [Example 149, (rel-1S,3R)-3-(6-((6-methoxy-2-methyl-1,2,3,4-tetrahydroisoquinolin-7-yl)amino)-3-methyl-1H-pyrazolo[3,4-d]pyrimidin-1-yl)cyclopentan-1-ol] | < 100 nM |
| COc1cc2c(cc1Nc1ncc3cnn(C[C@H]4[C@H](C)CCN4C(C)=O)c3n1)CN(C)CC2 (single isomer, unassigned) [Example 147] | 100 to 250 nM |
| COc1cc2c(cc1Nc1ncc3cnn(C[C@@H]4[C@@H](C)CCN4C(C)=O)c3n1)CN(C)CC2 (single isomer, unassigned) [Example 148] | < 100 nM |

Other lines, results leading:

| IC50 | SMILES |
| --- | --- |
| < 100 nM | COc1cc2c(cc1Nc1ncc3cnn(C[C@H]4C[C@H]4C)c3n1)CN(C)CC2 (racemic) [Example 202, 6-methoxy-2-methyl-N-(1-((cis-2-methylcyclopropyl)methyl)-1H-pyrazolo[3,4-d]pyrimidin-6-yl)-1,2,3,4-tetrahydroisoquinolin-7-amine, Trifluoroacetate Salt] |
| < 100 nM | COc1cc2c(cc1Nc1ncc3cnn(C[C@@H]4C[C@@H]4F)c3n1)CN(C)CC2 (racemic) [Example 207, N-(1-(((cis)-2-fluorocyclopropyl)methyl)-1H-pyrazolo[3,4-d]pyrimidin-6-yl)-6-methoxy-2-methyl-1,2,3,4-tetrahydroisoquinolin-7-amine] |
| < 100 nM | COc1cc2c(cc1Nc1ncc3cnn(C[C@@H]4[C@@H](C)CCN4C(C)=O)c3n1)CN(C)CC2 (racemic) [Example 214, 1-[2-[[6-[(6-methoxy-2-methyl-3,4-dihydro-1H-isoquinolin-7-yl)amino]pyrazolo[3,4-d]pyrimidin-1-yl]methyl]-3-methyl-pyrrolidin-1-yl]ethenone] |
| < 100 nM | COc1cc2c(cc1Nc1ncc3cnn([C@@H]4C[C@@H]5C[C@H]4N(C(C)=O)C5)c3n1)CN(C)CC2 (relative stereo) [Example 193, rel-1-((1R,4S,6R)-6-(6-((6-methoxy-2-methyl-1,2,3,4-tetrahydroisoquinolin-7-yl)amino)-1H-pyrazolo[3,4-d]pyrimidin-1-yl]-2-azabicyclo[2.2.1]heptan-2-yl)ethan-1-one] |
| < 100 nM | COc1cc2c(cc1Nc1ncc3cnn(C[C@H]4C[C@H]4CO)c3n1)CN(C)CC2 (relative stereo) [Example 205, (cis-2-((6-((6-methoxy-2-methyl-1,2,3,4-tetrahydroisoquinolin-7-yl)amino)-1H-pyrazolo[3,4-d]pyrimidin-1-yl)methyl)cyclopropyl)methanol] |
